Test [1] concerns transcription factor AP-1 (nuclear extract protein prepared from HeLa cells). As to the kind of experiment: Activities on AP-1 binding reaction to recognition sequence (ELISA) using nuclear extract protein. To be noted: 100 μM; ELISA using nucleus-extracted protein. The method, then: (§1) Activities on AP-1 Binding Reaction to Recognition Sequence (ELISA)
Nuclear extract protein containing transcription factor AP-1 prepared from HeLa cells was coated on 96-well ELISA plate (100 ng/well) in Hepes buffer (20 mM Hepes-potassium hydroxide (pH 7.9), 0,5 mM ethylenediamine-tetraacetic acid, 50 mM potassium chloride, 10% glycerol). After washing, a blocking treatment was carried out with bovine serum albumin, and then used for a binding assay using nuclear extract protein.
(§2) On the basis of the above-mentioned two coated AP-1, a digoxigenin-labeled double stranded oligonucleotide (22-mer) containing an AP-1 binding sequence ([…]) which has been synthesized elsewhere was reacted in the presence and absence of a sample at room temperature for 30-60 minutes in a binding reaction solution [Hepes buffer or 25 mM tris-hydrochloric acid (pH 7.9), 0.5 mM ethylenediaminetetraacetic acid, 0.05% Nonidet P-40, 10% glycerol]. After of the reaction, unbound labeled oligonucleotide washed out with Hepes buffer solution containing 0.05% of Tween-20. Then, an anti-digoxigenin antibody labeled with peroxidase was added, and reacted with the labeled oligonucleotide bound to AP-1. After washing out the excessive antibody with Hepes buffer containing 0.05% of Tween-20, the residue was reacted for a predetermined period of time in a 100 mM citrate buffer (pH 5.0) containing hydrogen peroxide by using o-phenylenediamine as a substrate. After adding-sulfuric acid solution to each well, absorbance (492 nm) was measured. Taking the absorbance in the absence of sample as 100%, inhibition rate of sample was calculated from the absorbance in the presence of sample.
In general terms: In an ELISA, binding on a coated surface is turned into a signal by an enzyme label.

Test [2] concerns the target T1, AP-1 complex (Fos/Jun peptide) (Homo sapiens, UniProt P01100+P05412).
T1 construct: made in house; host or cells: chemical peptide synthesis (no expression host)
As to the kind of experiment: Activities on AP-1 binding reaction to recognition sequence (ELISA) using Fos/Jun peptide. As to conditions: read-out: Inhibition rate %. The method, then:
as §1
On the other hand, Jun peptide and N-terminal biotinylated tetraglycine Fos peptide containing a DNA-binding site [Nature, Vol. 373, Pages 257-261, 1995] were synthesized and separately dissolved in tris buffer (20 mM tris-hydrochloride (pH 7.5), 50 mM potassium chloride, 1 mM ethylenediaminetetraacetic acid, 10 mM magnesium chloride, 1 mM dithiothreitol, 0.5M guanidine hydrochloride, 30% glycerol). Equimolar quantities of both the solutions were mixed together, and the mixture was used as an AP-1 complex (Fos/Jun peptide). The AP-1 complex was added to avidin-coating 96-well ELISA plate (10 pmol/well), washed, and then blocked with bovine serum albumin. The product was used for binding assay using AP-1 complex.
as §2

Bridge positions count the residues as written; N and C are the ends. Peptide text beside a SMILES is read from it.

T1 sequence (P01100 137-200 limits assumed): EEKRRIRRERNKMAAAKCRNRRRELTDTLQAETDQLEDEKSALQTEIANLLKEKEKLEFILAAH
T1 sequence (P05412 252-315 limits assumed): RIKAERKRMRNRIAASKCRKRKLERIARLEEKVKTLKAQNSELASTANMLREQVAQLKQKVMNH

Compound `CC(=O)NC1CSSCC(C(N)=O)NC(=O)CNC(=O)C(CC(C)C)NC(=O)C(C)NC(=O)C(CC(C)C)NC(=O)C(CO)NC(=O)C(CC(C)C)NC(=O)C(CCC(N)=O)NC(=O)CNC1=O` (stereo not drawn) [3 (2)] (Ac-CGQLSLALGC-NH2; disulfide 1-10; configuration not given here) yielded an Inhibition rate in test [1] of 94%.

`CC(=O)NC1CSSCC(C(N)=O)NC(=O)CNC(=O)C(CC(N)=O)NC(=O)C(C)NC(=O)C(CC(C)C)NC(=O)C(CC(=O)O)NC(=O)C(CC(C)C)NC(=O)C(CCC(N)=O)NC(=O)CNC1=O` (stereo not drawn) [3 (4)] (Ac-CGQLDLANGC-NH2; disulfide 1-10; configuration not given here) yielded an Inhibition rate in test [1] of 64%. Same read-out and setting: with `CC(=O)NC1CSSCC(C(N)=O)NC(=O)CNC(=O)C(CC(=O)O)NC(=O)C(C)NC(=O)C(CC(C)C)NC(=O)C(CC(=O)O)NC(=O)C(CC(C)C)NC(=O)C(CC(N)=O)NC(=O)CNC1=O` (stereo not drawn) [3 (6)] (Ac-CGNLDLADGC-NH2; disulfide 1-10; configuration not given here) the figure was 42%; with `CC(=O)NC1CSSCC(C(N)=O)NC(=O)C(CC(=O)O)NC(=O)CNC(=O)C(CC(C)C)NC(=O)C(C)NC(=O)C(CC(C)C)NC(=O)C(CC(C)C)NC(=O)C(CC(N)=O)NC(=O)CNC1=O` (stereo not drawn) [3 (10)] (Ac-CGNLLALGDC-NH2; disulfide 1-10; configuration not given here), 76%. On to `CC(=O)NC1CSSCC(C(N)=O)NC(=O)CNC(=O)CNC(=O)C(C)NC(=O)C(CC(C)C)NC(=O)C(CC(=O)O)NC(=O)C(CC(C)C)NC(=O)C(CCC(N)=O)NC(=O)CNC1=O` (stereo not drawn) [3(3), Ac-Cys^1-Gly-Gln-Leu-Asp-Leu-Ala-Gly-Gly-Cys^10-NH2 (Cys^1-Cys^10)] (Ac-CGQLDLAGGC-NH2; disulfide 1-10; configuration not given here), for which, in test [1], the Inhibition rate is 43%. Compound `CC(=O)NC1CSSCC(C(N)=O)NC(=O)CNC(=O)C(CC(=O)O)NC(=O)C(C)NC(=O)C(CC(C)C)NC(=O)C(CO)NC(=O)C(CC(C)C)NC(=O)C(CCC(N)=O)NC(=O)CNC1=O` (stereo not drawn) [3(5), Ac-Cys^1-Gly-Gln-Leu-Ser-Leu-Ala-Asp-Gly-Cys^10-NH2 (Cys^1-Cys^10)] (Ac-CGQLSLADGC-NH2; disulfide 1-10; configuration not given here) returned an Inhibition rate in test [1] of 43%. Broadly, the inhibition is the relative decrease from the control value, in per cent. For the compound `CC(C)CC=C1CCC2(CC1)SC[C@H](C(=O)O)N2C(=O)CCC(C)C` (stereo partly drawn) [Example 4, (3S)-8-(3-methylbutylidene)-4-(4-methylpentanoyl)-1-thia-4-azaspiro[4.5]-decane-3-carboxylic acid], in test [2], the inhibition at 200 µM is 8% and the inhibition at 500 µM was 15%. Take `CC(C)COc1ccc(C(=O)c2ccc(OCC(C)C)c(CC(=O)O)c2)c(OCC(C)C)c1` [Example 7, 2-[5-(2,4-diisobutoxybenzoyl)-2-isobutoxyphenyl]acetic acid]: in test [2], the inhibition at 200 µM amounted to 14% and the inhibition at 500 µM came to 46%.

`CC(C)COc1ccc(C(=O)c2ccc(OCC(C)C)c(C(=O)O)c2)c(OCC(C)C)c1` [Example 8, 5-(2,4-diisobutoxybenzoyl)-2-isobutoxybenzoic acid]: in test [2], the inhibition at 200 µM is 9% and the inhibition at 500 µM is 20%. Take `CC(C)COc1ccc(C(O)c2ccc(OCC(C)C)c(CC(=O)O)c2)c(OCC(C)C)c1` (stereo not drawn) [Example 9, 2-{5-[(2,4-diisobutoxyphenyl)(hydroxy)methyl]-2-isobutoxyphenyl}-acetic acid]: in test [2], the inhibition at 200 µM is 23% and the inhibition at 500 µM came to 37%. Take `CC(C)COc1ccc(C(=O)c2ccc(OCC(C)C)c(/C=C/C(=O)O)c2)c(OCC(C)C)c1` [Example 13, 3-[5-(2,4-diisobutoxybenzoyl)-2-isobutoxyphenyl]-2-propenoic acid]: in test [2], the inhibition at 200 µM came to 43% and the inhibition at 500 µM was 96%. In the case of `CC(C)COc1ccc(C(O)c2ccc(OCC(C)C)c(C=CC(=O)O)c2)c(OCC(C)C)c1` (stereo not drawn) [Example 14, 3-[5-[(2,4-diisobutoxyphenyl)(hydroxy)methyl]-2-isobutoxyphenyl]-2-propenoic acid], in test [2], the inhibition at 200 µM is 21% and the inhibition at 500 µM was found to be 90%.

Consider `CC(C)COc1ccc(C(O)c2ccc(OCC(C)C)c(CCC(=O)O)c2)c(OCC(C)C)c1` (stereo not drawn) [Example 15, 3-{5-[(2,4-diisobutoxyphenyl)(hydroxy)methyl]-2-isobutoxyphenyl}propionic acid], for which, in test [2], the inhibition at 200 µM is 19% and the inhibition at 500 µM was 64%. The matching figures for `CC(C)COc1ccc(Cc2ccc(OCC(C)C)c(CC(=O)O)c2)c(OCC(C)C)c1` [Example 16, 2-[5-(2,4-diisobutoxybenzyl)-2-isobutoxyphenyl]acetic acid]: 21% and 65%. Take `CC(C)COc1ccc(C(=O)c2ccc(OCC(C)C)c(CCC(=O)O)c2)c(O)c1` [Example 38, 3-[5-(2-hydroxy-4-isobutoxybenzoyl)-2-isobutoxyphenyl]-propanoic acid]: in test [2], the inhibition at 200 µM was 18% and the inhibition at 500 µM was determined as 91%. `CC(C)COc1cc(OCC(C)C)cc(C(=O)c2ccc(OCC(C)C)c(CCC(=O)O)c2)c1` [Example 41, 3-[5-(3,5-diisobutoxybenzoyl)-2-isobutoxyphenyl]propanoic acid]: in test [2], the inhibition at 200 µM was 27% and the inhibition at 500 µM is 78%.

In the case of `CC(C)COc1ccc(OCC(C)C)c(C(=O)c2ccc(OCC(C)C)c(CCC(=O)O)c2)c1` [Example 43, 3-[5-(2,5-diisobutoxybenzoyl)-2-isobutoxyphenyl]-propanoic acid], in test [2], the inhibition at 200 µM was 28% and the inhibition at 500 µM is 72%. As to `CC(C)COc1ccc(C(=O)c2ccc(OCC(C)C)c(OCC(C)C)c2)cc1CCC(=O)O` [Example 47, 3-[5-(3,4-diisobutoxybenzoyl)-2-isobutoxyphenyl]-propanoic acid], in test [2], the inhibition at 200 µM is 35% and the inhibition at 500 µM came out at 92%. Take `CC(C)COc1ccc(C(=O)c2ccc(OCC(C)C)c(OCC(=O)O)c2)c(OCC(C)C)c1` [Example 53, 2-[5-(2,4-diisobutoxybenzoyl)-2-isobutoxyphenoxy]acetic acid]: in test [2], the inhibition at 200 µM was determined as 30% and the inhibition at 500 µM is 79%. On to `CC(C)COc1ccc(C(=O)c2ccc(OCC(C)C)c(C(=O)NCC(=O)O)c2)c(OCC(C)C)c1` [Example 57, 2-{[5-(2,4-diisobutoxybenzoyl)-2-isobutoxybenzoyl]amino}-acetic acid], for which, in test [2], the inhibition at 200 µM was 13% and the inhibition at 500 µM was 62%. On to `CC(C)COc1ccc(C(=O)c2ccc(OCC(C)C)c(CCC(=O)NS(C)(=O)=O)c2)c(OCC(C)C)c1` [Example 58, N-{3-[5-(2,4-diisobutoxybenzoyl)-2-isobutoxyphenyl]propanoyl}methanesulfonamide], for which, in test [2], the inhibition at 200 µM amounted to 22% and the inhibition at 500 µM was determined as 88%. The matching figures for `CC(C)COc1ccc(C(NS(C)(=O)=O)c2ccc(OCC(C)C)c(CCC(=O)O)c2)c(OCC(C)C)c1` (stereo not drawn) [Example 73, 3-(5-{(2,4-diisobutoxyphenyl)[(methylsulfonyl)amino]methyl}-2-isobutoxyphenyl)propanoic acid]: 18% and 74%. Consider `CC(C)COc1ccc(C(=O)c2ccc3c(c2)cc(C(=O)O)n3CC(C)C)c(OCC(C)C)c1` [Example 82, 5-(2,4-diisobutoxybenzoyl)-1-isobutyl-1H-indole-2-carboxylic acid], for which, in test [2], the inhibition at 200 µM stood at 28% and the inhibition at 500 µM was determined as 97%.

Regarding `CC(C)CCOc1ccc(C(=O)c2cc(C(=O)CC(C)C)cn2CCC(C)C)cc1CCC(=O)O` [Example 88, 3-[5-{[1-isopentyl-4-(3-methylbutanoyl)-1H-pyrrol-2-yl]carbonyl}-2-(isopentyloxy)phenyl]propanoic acid], in test [2], the inhibition at 200 µM came to 29% and the inhibition at 500 µM stood at 72%. Consider `CC(C)CCOc1ccc(C(=O)c2ccc3c(c2)n(CCC(C)C)c(=O)n3CCC(C)C)cc1CC(=O)O` [Example 90, 2-[5-[(1,3-diisopentyl-2-oxo-2,3-dihydro-1H-benzimidazol-5-yl)carbonyl]-2-(isopentyloxy)phenyl]-acetic acid], for which, in test [2], the inhibition at 200 µM came out at 26% and the inhibition at 500 µM was 96%. “Ac-Asn-Cys^2-Gly-Asn-Leu-Leu-Ala-Leu-Gly-Ser-Cys^11-NH2 (Cys^2-Cys^11) (GNLLALGSC; not fully specified; Ac-Asn-Cys N-term, C-amide, disulfide; printed: Gly-Asn-Leu-Leu-Ala-Leu-Gly-Ser-Cys) [3(7)]”: in test [1], the Inhibition rate was found to be 74%.

Values taken from US7314888B1, “Compounds and medicinal use thereof” (Toyama Chemical Co., Ltd., priority 1998, dated 2008).
